Our source for the IC50 values is patent EP0617968B1, “HIV protease inhibitors in pharmaceutical combinations for the treatment of AIDS” (Merck & Co., Inc., priority 1993, dated 1994).

This assay deals with T1, HIV protease (Human immunodeficiency virus type 1 group M subtype B, UniProt P04585).
T1 construct: made in house; host or cells: Escherichia coli
The experiment in a line: biochemical. The settings on record: protease expressed in Eschericia coli; peptide substrate 0.5 mg/mL; 50 mM Na acetate, pH 5.5, 30°C, 1 hour. As to the method:
Assay for Inhibition of Microbial Expressed HIV Protease
Inhibition studies of the reaction of the protease expressed in Eschericia coli with a peptide substrate [Val-Ser-Gln-Asn-(betanapthyl)Ala-Pro-Ile-Val, 0.5 mg/mL at the time the reaction is initiated] were in 50 mM Na acetate, pH 5.5, at 30°C for 1 hour. Various concentrations of inhibitor in 1.0 ul DMSO were added to 25 ul of the peptide solution in water. The reaction is initiated by the addition of 15 ul of 0.33 nM protease (0.11 ng) in a solution of 0.133 M Na acetate pH 5.5 and 0.1% bovine serum albumin. The reaction was quenched with 160 ul of 5% phosphoric acid. Products of the reaction were separated by HPLC (VYDAC wide pore 5 cm C-18 reverse phase, acetonitrile gradient, 0.1 % phosphoric acid). The extent of inhibition of the reaction was determined from the peak heights of the products.

pIC50: −log10 of the molar value.

With `CC(C)(C)NC(=O)[C@@H]1C[C@@H]2CCCC[C@@H]2CN1C[C@@H](O)C[C@@H](Cc1ccccc1)C(=O)N[C@H]1c2ccccc2C[C@H]1O` [A, N-(2(R)-hydroxy-1(S)-indanyl)-2(R)-phenylmethyl-4(S)-hydroxy-5-(2-(3(S)-N'-(t-butylcarbamoyl)-(4aS,8aS)-decahydroisoquinoline)yl)-pentaneamide], the pIC50 (usually −log10 of the IC50, conventionally taken in molar units) is 8.22 to 9.52.
For the molecule `CC(C)(C)NC(=O)[C@@H]1CN(C(=O)OCc2ccccc2)CCN1C[C@@H](O)C[C@@H](Cc1ccccc1)C(=O)N[C@H]1c2ccccc2C[C@H]1O` [B, N-(2(R)-hydroxy-1(S)-indanyl)-2(R)-phenylmethyl-4(S)-hydroxy-5-(1-(4-carbobenzyloxy-2(S)-N'-(t-butylcarbamoyl)-piperazinyl))-pentaneamide], the pIC50 was 8.22 to 9.52.
